Measurements published in patent publication US12295936B2, “Immunomodulating urea azalides” (Zoetis Services LLC, priority 2020, dated 2025).

Legend:
Assay in all cases: LPS-stimulated whole bovine blood assay, MSD cytokine detection
Format in all cases: cell-based
TNF-α = details: Bos taurus, LPS-stimulated bovine whole blood; read-out: TNF-α (IC50 μM)
Protocol: (§1) Therefore, a fresh whole bovine blood assay was developed with LPS as a stimulant (TLR-4 agonist) and with IL-1β and TNF-α as the read-out. Compounds of the invention were evaluated against a positive control for their ability to inhibit LPS-induced IL-1β and TNF-α as an overall evaluation of relative potency and modulation of target pathways (Table 6).
In the bovine whole blood in vitro screening assay the inhibition of TNFα as induced by stimulation by lipopolysaccharide (LPS) and as measured by half the maximal inhibitory concentration (IC50) is recognized as the primary biomarker of immunomodulation potency upon pretreatment with the compounds of the invention. IL-1β is a mediator of the inflammation response and is involved in a number of cellular activities including proliferation, differentiation and apoptosis. IL-1β is also released upon cellular stress or cytotoxicity or upon TLR stimulation. In the bovine whole blood assay the stimulation of IL-1β release upon increasing concentration of test compound is seen as a potential cellular toxicity signal as induced by the test compound. In order to estimate a therapeutic index from the in vitro assay a differential between the TNFα IC50 (immunomodulation potency) versus the perceived cellular toxicity concentration (IL-1β release or overstimulation) was utilized.

IL-1β = details: overstimulation of IL-1β, LPS-stimulated bovine whole blood
Protocol: as §1, with “The effect of multiple cytokines was not easily quantified using single cell types. Therefore,” for “Therefore,”
(§2) In order to correlate RNA sequencing data to cytokine changes the whole blood assay was utilized. […] The enhancement result represents an overall stimulation of cytokine levels due to cellular stress or potential toxicity with increasing concentrations of the compound, representing a typical bell shape response curve for immunomodulatory activity.
In the bovine whole blood in vitro screening assay the inhibition of TNFα as induced by stimulation by lipopolysaccharide (LPS) and as measured by half the maximal inhibitory concentration (IC50) is recognized as the primary biomarker of immunomodulation potency upon pretreatment with the compounds of the invention.

IL-6 = details: Bos taurus, LPS-stimulated bovine whole blood; read-out: IL-6 (IC50 μM)
Excerpt: as §2

| IC50 (TNF-α) [µM] | IC50 (IL-6) [µM] | SMILES | IL-1β OS of LPS (IL-1β) [µM] |
| --- | --- | --- | --- |
| 9 | 23 | CC[C@H]1OC(=O)[C@H](C)[C@@H](O[C@H]2C[C@@](C)(OC)[C@H](O)[C@H](C)O2)[C@H](C)[C@@H](O[C@@H]2O[C@H](C)C[C@H](N(C)C(=O)N(C)c3ccc(C(F)(F)F)cc3)[C@H]2O)[C@](C)(O)C[C@@H](C)CN[C@H](C)[C@@H](O)[C@]1(C)O [Example B-2a, 1-((2S,3R,4S,6R)-2-(((2R,3S,4R,5R,8R,10R,11R,12S,13S,14R)-2-ethyl-3,4,10-trihydroxy-13-(((2R,4R,5R,6S)-5-hydroxy-4-methoxy-4,6-dimethyltetrahydro-2H-pyran-2-yl)oxy)-3,5,8,10,12,14-hexamethyl-15-oxo-1-oxa-6-azacyclopentadecan-11-yl)oxy)-3-hydroxy-6-methyltetrahydro-2H-pyran-4-yl)-1,3-dimethyl-3-(4-(trifluoromethyl)phenyl)urea] | 16 |
| 156 | 143 | CC[C@H]1OC(=O)[C@H](C)[C@@H](O[C@H]2C[C@@](C)(OC)[C@@H](O)[C@H](C)O2)[C@H](C)[C@@H](O[C@@H]2O[C@H](C)C[C@H](N(C)C(=O)Nc3ccc(N(C)C)cc3)[C@H]2O)[C@](C)(O)C[C@@H](C)CN(C)[C@H](C)[C@@H](O)[C@]1(C)O [Example B-7, 3-(4-(dimethylamino)phenyl)-1-((2S,3R,4S,6R)-2-(((2R,3S,4R,5R,8R,10R,11R,12S,13S,14R)-2-ethyl-3,4,10-trihydroxy-13-(((2R,4R,5S,6S)-5-hydroxy-4-methoxy-4,6-dimethyltetrahydro-2H-pyran-2-yl)oxy)-3,5,6,8,10,12,14-heptamethyl-15-oxo-1-oxa-6-azacyclopentadecan-11-yl)oxy)-3-hydroxy-6-methyltetrahydro-2H-pyran-4-yl)-1-methylurea] | 100 |
| 20 | 30 | CCCSC[C@]1(O)[C@H](C)O[C@@H](O[C@H]2[C@H](C)[C@@H](O[C@@H]3O[C@H](C)C[C@H](N(C)C(=O)N(C)c4ccccc4)[C@H]3O)[C@](C)(O)C[C@@H](C)CN[C@H](C)[C@@H](O)[C@](C)(O)[C@@H](CC)OC(=O)[C@@H]2C)C[C@@]1(C)OC [Example D-2, 1-((2S,3R,4S,6R)-2-(((2R,3S,4R,5R,8R,10R,11R,12S,13S,14R)-2-ethyl-3,4,10-trihydroxy-13-(((2R,4R,5S,6S)-5-hydroxy-4-methoxy-4,6-dimethyl-5-((propylthio)methyl)tetrahydro-2H-pyran-2-yl)oxy)-3,5,8,10,12,14-hexamethyl-15-oxo-1-oxa-6-azacyclopentadecan-11-yl)oxy)-3-hydroxy-6-methyltetrahydro-2H-pyran-4-yl)-1,3-dimethyl-3-phenylurea] | 16 |
| 24 | 165 | CC[C@H]1OC(=O)[C@H](C)[C@@H](O[C@H]2C[C@@](C)(OC)[C@](O)(CNCCOC)[C@H](C)O2)[C@H](C)[C@@H](O[C@@H]2O[C@H](C)C[C@H](N(C)C(=O)N(C)c3ccccc3)[C@H]2O)[C@](C)(O)C[C@@H](C)CN[C@H](C)[C@@H](O)[C@]1(C)O [Example H-18, 1-((2S,3R,4S,6R)-2-(((2R,3S,4R,5R,8R,10R,11R,12S,13S,14R)-2-ethyl-3,4,10-trihydroxy-13-(((2R,4R,5S,6S)-5-hydroxy-4-methoxy-5-(((2-methoxyethyl)amino)methyl)-4,6-dimethyltetrahydro-2H-pyran-2-yl)oxy)-3,5,8,10,12,14-hexamethyl-15-oxo-1-oxa-6-azacyclopentadecan-11-yl)oxy)-3-hydroxy-6-methyltetrahydro-2H-pyran-4-yl)-1,3-dimethyl-3-phenylurea] | 40 |
| 70 | 181 | CC[C@H]1OC(=O)[C@H](C)[C@@H](O[C@H]2C[C@@](C)(OC)[C@](O)(CNCCCOC)[C@H](C)O2)[C@H](C)[C@@H](O[C@@H]2O[C@H](C)C[C@H](N(C)C(=O)N(C)c3ccccc3)[C@H]2O)[C@](C)(O)C[C@@H](C)CN[C@H](C)[C@@H](O)[C@]1(C)O [Example H-19, 1-((2S,3R,4S,6R)-2-(((2R,3S,4R,5R,8R,10R,11R,12S,13S,14R)-2-ethyl-3,4,10-trihydroxy-13-(((2R,4R,5S,6S)-5-hydroxy-4-methoxy-5-(((3-methoxypropyl)amino)methyl)-4,6-dimethyltetrahydro-2H-pyran-2-yl)oxy)-3,5,8,10,12,14-hexamethyl-15-oxo-1-oxa-6-azacyclopentadecan-11-yl)oxy)-3-hydroxy-6-methyltetrahydro-2H-pyran-4-yl)-1,3-dimethyl-3-phenylurea] | 100 |

Second part, the molecule before the results:

| SMILES | IC50 (TNF-α) [µM] | IC50 (IL-6) [µM] | IL-1β OS of LPS (IL-1β) [µM] |
| --- | --- | --- | --- |
| CC[C@H]1OC(=O)[C@H](C)[C@@H](O[C@H]2C[C@@](C)(OC)[C@@](C)(O)[C@H](C)O2)[C@H](C)[C@@H](O[C@@H]2O[C@H](C)C[C@H](N(C)C(=O)N(C)c3ccccc3)[C@H]2O)[C@](C)(O)C[C@@H](C)CN[C@H](C)[C@@H](O)[C@]1(C)O [Example B-1, 1-((2S,3R,4S,6R)-2-(((2R,3S,4R,5R,8R,10R,11R,12S,13S,14R)-2-ethyl-3,4,10-trihydroxy-13-(((2R,4R,5S,6S)-5-hydroxy-4-methoxy-4,5,6-trimethyltetrahydro-2H-pyran-2-yl)oxy)-3,5,8,10,12,14-hexamethyl-15-oxo-1-oxa-6-azacyclopentadecan-11-yl)oxy)-3-hydroxy-6-methyltetrahydro-2H-pyran-4-yl)-1,3-dimethyl-3-phenylurea] | 25 | 31 | 40 |
| CC[C@H]1OC(=O)[C@H](C)[C@@H](O[C@H]2C[C@@](C)(OC)[C@@H](O)[C@H](C)O2)[C@H](C)[C@@H](O[C@@H]2O[C@H](C)C[C@H](N(C)C(=O)N(C)c3ccccc3)[C@H]2O)[C@](C)(O)C[C@@H](C)CN[C@H](C)[C@@H](O)[C@]1(C)O [Example B-3, 1-((2S,3R,4S,6R)-2-(((2R,3S,4R,5R,8R,10R,11R,12S,13S,14R)-2-ethyl-3,4,10-trihydroxy-13-(((2R,4R,5S,6S)-5-hydroxy-4-methoxy-4,6-dimethyltetrahydro-2H-pyran-2-yl)oxy)-3,5,8,10,12,14-hexamethyl-15-oxo-1-oxa-6-azacyclopentadecan-11-yl)oxy)-3-hydroxy-6-methyltetrahydro-2H-pyran-4-yl)-1,3-dimethyl-3-phenylurea] | 37 | 65 | 40 |
| CC[C@H]1OC(=O)[C@H](C)[C@@H](O[C@H]2C[C@@](C)(OC)[C@H](O)[C@H](C)O2)[C@H](C)[C@@H](O[C@@H]2O[C@H](C)C[C@H](N(C)C(=O)N(C)c3ccccc3)[C@H]2O)[C@](C)(O)C[C@@H](C)CN[C@H](C)[C@@H](O)[C@]1(C)O [Example B-3a, 1-((2S,3R,4S,6R)-2-(((2R,3S,4R,5R,8R,10R,11R,12S,13S,14R)-2-ethyl-3,4,10-trihydroxy-13-(((2R,4R,5R,6S)-5-hydroxy-4-methoxy-4,6-dimethyltetrahydro-2H-pyran-2-yl)oxy)-3,5,8,10,12,14-hexamethyl-15-oxo-1-oxa-6-azacyclopentadecan-11-yl)oxy)-3-hydroxy-6-methyltetrahydro-2H-pyran-4-yl)-1,3-dimethyl-3-phenylurea] | 12 | 26 | 16 |
| CC[C@H]1OC(=O)[C@H](C)[C@@H](O[C@H]2C[C@@](C)(OC)[C@](O)(CNCCN(C)C)[C@H](C)O2)[C@H](C)[C@@H](O[C@@H]2O[C@H](C)C[C@H](N(C)C(=O)N(C)c3ccccc3)[C@H]2O)[C@](C)(O)C[C@@H](C)CN[C@H](C)[C@@H](O)[C@]1(C)O [Example H-20, 1-((2S,3R,4S,6R)-2-(((2R,3S,4R,5R,8R,10R,11R,12S,13S,14R)-13-(((2R,4R,5S,6S)-5-(((2-(dimethylamino)ethyl)amino)methyl)-5-hydroxy-4-methoxy-4,6-dimethyltetrahydro-2H-pyran-2-yl)oxy)-2-ethyl-3,4,10-trihydroxy-3,5,8,10,12,14-hexamethyl-15-oxo-1-oxa-6-azacyclopentadecan-11-yl)oxy)-3-hydroxy-6-methyltetrahydro-2H-pyran-4-yl)-1,3-dimethyl-3-phenylurea] | 31 | > 500 | 6 |
